Experimental findings from paper PMC8769072, “Proteome‐scale mapping of binding sites in the unstructured regions of the human proteome” (Molecular Systems Biology, 2022) are described below.

This assay relates to immobilized GST-tagged bait protein domains. The assay can be described thus: ProP-PD phage selections (HD2 P8, sublibraries, HD2 P3, HD1 P8) with NGS and confidence level. It is filed as binding, human. The settings on record: for confidence / HD confidence / HD count proportions / HD mean counts: library HD; for confidence: ProP-PD peptides with disease-related mutations; for HD count proportions: mean normalised NGS counts; for HD mean counts: mean raw NGS counts, all selections; for p3_HD2 confidence / p3_HD2 mean counts / p3_HD2 count proportions: HD2 P3 library; for p3_HD2 confidence: confidence level (4 = High, 2-3 = Medium, 1 = Low); for p3_HD2 mean counts: mean NGS counts over replicate selections; for p3_HD2 count proportions: mean proportion of NGS counts.

Where [1] appears, read: library HD2, bait EPS15_EH__P42566_121_215, whether the validated benchmark motif instance was recovered in the ProP-PD selection (TRUE/FALSE).
Where [2] appears, read: bait MAP1LC3A_ATG8 (Q9H492 2-121), HD2 library, benchmark motif instance recovered in the ProP-PD selection (TRUE/FALSE).
The mark [3] stands for this setting: bait MAP1LC3B_ATG8 (Q9GZQ8 2-119), HD2 library, benchmark motif instance recovered in the ProP-PD selection (TRUE/FALSE).
Setting [4] is: library HD2, bait KLC1_TPR__Q07866_203_497, whether the validated benchmark motif instance was recovered in the ProP-PD selection (TRUE/FALSE).
Where [5] appears, read: bait AP2B1_adaptin__P63010_700_937.
Setting [6] is: HD2 library, bait SUMO1_SUMO__P63165_1_101, known motif instance of the benchmarking set found (TRUE) or not found (FALSE) among selected peptides.
Where [7] appears, read: bait KPNA4_Arm (O00629 68-487), HD2 library, benchmark motif instance recovered in the ProP-PD selection (TRUE/FALSE).
[8] abbreviates: library HD2, bait YES1_SH3__P07947_90_152, validated benchmark motif instance, in_library_check TRUE, TRUE/FALSE = instance recovered in ProP-PD selection.
Setting [9] is: bait ANKRA2_Ank__Q9H9E1_142_313, HD2 P8 selection, confidence level -4 to 4: 4 = High, 3 or 2 = Medium, 1 = Low, 0 = Filtered/Noise.
The mark [10] stands for this setting: bait MDM2_p53-binding-domain (Q00987 17-125), HD2 library, benchmark motif instance recovered in the ProP-PD selection (TRUE/FALSE).
Setting [11] is: bait PEX14_Pex14__O75381_16_84, HD2 library, whether the validated benchmark motif instance was recovered in the ProP-PD selection (TRUE/FALSE).
Setting [12] is: bait PABP-B_PABP__P11940_544_623, HD2 library, whether the validated benchmark motif instance was recovered in the ProP-PD selection (TRUE/FALSE).
[13] abbreviates: library HD2, bait Keap1_KELCH__Q14145_321_609, whether the validated benchmark motif instance was recovered in the ProP-PD selection (TRUE/FALSE).
[14] abbreviates: bait MDM2_p53-binding-domain (Q00987 17-125), HD2 library, confidence level (1-4) of best matching peptide.
Where [15] appears, read: bait MDM2_p53-binding-domain (Q00987 17-125), HD2 library, specificity score of best matching peptide.

As to DRHRIEEKRKRTYETFKSIMK [RELA 301-307], the motif_found entry (HD2 library, bait KPNA4_Arm__O00629_68_487, benchmark motif instance, in_library_check FALSE, in_library_coverage 0) was “FALSE”. With DSFYNNSYNPFKEVQTPQY, under setting [1], the motif_found entry is recorded as “FALSE”.

For DSSCDTDDFVMVPAQFPGD, the motif_found result is, setting by setting: under setting [2], “FALSE”; under setting [3], “FALSE”. As for DSSKDSGFTIVSPLDI, the motif_found result under setting [3] was “TRUE”. The same substance returned a best_confidence (bait MAP1LC3B_ATG8 (Q9GZQ8 2-119), HD2 library, confidence level (1-4) of best matching peptide) of 4. The best_specificity (bait MAP1LC3B_ATG8 (Q9GZQ8 2-119), HD2 library, specificity score of best matching peptide) is given as 1.

Take DTGKENEMDWDDSALTITVNPMET: the motif_found entry under setting [4] is reported as “FALSE”. DTHAKWEQATKLILNY returned a confidence (bait CALM1_EF-hand__P0DP23_2_149) of 3.

As for DTLWRPMPKLAPLGLKVAN, the motif_found entry (library HD2, bait ZMYND11_coiled-coil-MYND__Q15326_480_602, validated benchmark motif instance, in_library_check TRUE, TRUE/FALSE = instance recovered in ProP-PD selection) is “FALSE”.

Under setting [5], DVDYFGQQFDQISNRT showed an HD confidence of 2, an HD count proportions of 0.1904 and an HD mean counts of 883.25. DWSNLVDAAKAYEVQR yielded an HD2-1mM_CaCl confidence (bait CALM1 EF-hand (P0DP23, 2-149), HD2 library selection with 1mM_CaCl, confidence level (4 = High, 2 or 3 = Medium, 1 = Low)) of 2. The substance further displayed an HD2 confidence (bait CALM1 EF-hand (P0DP23, 2-149), HD2 library selection, confidence level (4 = High, 2 or 3 = Medium, 1 = Low)) of 3. With DYDQSRTKVLHMSLNPTSVARQR, the motif_found entry (bait MAD2L1_HORMA (Q13257 1-205), HD2 library, benchmark motif instance recovered in the ProP-PD selection (TRUE/FALSE)) is reported as “FALSE”. On to DYESDDDSYEVLDLTEY, for which, under setting [3], the motif_found result is on record as “FALSE”. As to DYFDYESTNPFTAKFRASN, the motif_found result under setting [1] is “FALSE”. In the case of EASKKKVDVIDLTIESSSDE, the motif_found result under setting [6] is on record as “FALSE”. Take EATNTTSEPSAPSQDLLDLS: the motif_found entry (HD2 library, bait TSG101_UEV__Q99816_1_145, known motif instance of the benchmarking set found (TRUE) or not found (FALSE) among selected peptides) is given as “FALSE”. Take ECISSAMPKKKKPSRLKGDNE: the motif_found entry under setting [7] was “FALSE”. Turning to EDSPLLEDWDIISPKDVIG [TBC1D25 135-139], the motif_found entry by setting is: (HD2 library, bait MAP1LC3A_ATG8__Q9H492_2_121, benchmark motif instance, in_library_check FALSE, in_library_coverage 0) “FALSE”; (HD2 library, bait MAP1LC3B_ATG8__Q9GZQ8_2_119, benchmark motif instance, in_library_check FALSE, in_library_coverage 0) “FALSE”. With EEARKSPTPSAPVPLTEPAA, where the note is “library HD2, bait TSG101_UEV__Q99816_1_145, validated benchmark motif instance, in_library_check TRUE, TRUE/FALSE = instance recovered in ProP-PD selection”, the motif_found entry is on record as “FALSE”.

Take EEDQILKKPLPPEPAAAPVST: the motif_found entry under setting [8] is recorded as “FALSE”.

Take EEEEAVAGNPFIQPDSPAP: the motif_found entry under setting [1] is “FALSE”. As to EEEELDESNPFYEPKSTPP, under setting [1], the motif_found entry is recorded as “FALSE”. Under setting [9], EEEMEVPVLPKISLPI displayed an HD2 confidence of 2. In the case of EETFQLSRWTPFIKDI, under setting [5], the HD confidence worked out at 3, the HD count proportions is 0.004596 and the HD mean counts was 9.0. In the case of EFLSPEVFQHIWDFLEQPICSV, the motif_found result under setting [10] is given as “FALSE”. Consider EGALGGAFPPPPPPIEESF, for which the motif_found result (library HD2, bait VASP_EVH1__P50552_1_114, validated benchmark motif instance, in_library_check TRUE, TRUE/FALSE = instance recovered in ProP-PD selection) is listed as “FALSE”. Consider EGTATDRWYDEYHPEEDLQ, for which the motif_found result under setting [11] is “FALSE”.

For the substance EKPVPTLPQFTMGPNV, the HD2 confidence under setting [9] came to 3. For ELDKEIKNSFNPEAQVFMPISDPASSV, under setting [12], the motif_found result is reported as “FALSE”.

“ELDTNDDDIVFEDFARQRLKGMKDD,DDDIVFEDFARQRL [ARRB1]”: the motif_found result (bait AP2B1_adaptin__P63010_700_937, library HD2, benchmarking set of validated motif instances, TRUE = motif instance recovered in the ProP-PD selection) is recorded as “FALSE”. For the substance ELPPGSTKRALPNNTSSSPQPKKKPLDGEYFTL, under setting [7], the motif_found entry is reported as “FALSE”. Under “bait ANKRA2_Ank__Q9H9E1_142_313”, ELSMFQLPTLNFSPEQ gave a confidence of 3. Where the note is “bait NEDD4_WW_4_P46934_890_928”, EPCGQRDSPPDYHLLF registered a p3_HD2 confidence of 4, a p3_HD2 mean counts of 3356 and a p3_HD2 count proportions of 0.1373. With EPSKPAATRKRRWSAPESRK, under setting [7], the motif_found entry is “FALSE”. Under setting [5], EPSTTPNNWADFSSTW gave an HD confidence of 3, an HD count proportions of 0.0006275 and an HD mean counts of 1.5. Further, the HD2 confidence (bait AP2B1_adaptin__P63010_700_937, library HD2 P8) was 4. The same substance came in with an HD2_endomembrane confidence (bait AP2B1_adaptin__P63010_700_937, library HD2 P8 endomembrane) of 4. As for EQVASKGTGLNPNAKVWQEIAPGNTDA, the motif_found result under setting [12] is listed as “FALSE”. On to ERSGVIREVMIIEVSSSEEE, for which the motif_found result under setting [6] is listed as “FALSE”. Consider ESAKAADDPENGERESHTPV, for which the motif_found entry under setting [13] is given as “FALSE”. With ESEDYSQPSTSSSIIYSSQ, the motif_found entry (library HD2, bait USP7_MATH-TRAF__Q93009_53_206, validated benchmark motif instance, in_library_check TRUE, TRUE/FALSE = instance recovered in ProP-PD selection) is listed as “FALSE”. For the substance ESFGGGFADFSTLSKV, the best_specificity (bait AP2B1_adaptin__P63010_700_937, library HD2, best matching peptide) is 1. The substance further registered a best_confidence (bait AP2B1_adaptin__P63010_700_937, library HD2, confidence level of best matching peptide (4 = High, 2 or 3 = Medium, 1 = Low)) of 3.

In the case of ESGSLEDDWDFLPPKKIKD, the motif_found result under setting [2] is recorded as “FALSE” and the motif_found entry under setting [3] is on record as “FALSE”. Under “bait ANKRA2_Ank__Q9H9E1_142_313, library HD2 P8”, ESSNLCMPDLPHLLAF returned an HD2 confidence of 4. Under “bait CRK_SH3_1_P46108_124_198”, ETPGDGKPPALPPKQS yielded a p3_HD2 confidence of 3, a p3_HD2 mean counts of 437.0 and a p3_HD2 count proportions of 0.01474. With ETRICKIYDSPCLPEAEAMFA, the motif_found result under setting [8] is “FALSE”. Take FADFSTLSKVNNEDPF: under setting [5], the HD confidence stood at 3, the HD count proportions was 0.0005532 and the HD mean counts is 1.25.

Regarding FASKPPTTNPFL-------, under setting [1], the motif_found result was “FALSE”. In the case of FASQEKFFQELFDSELASQ, under setting [11], the motif_found result was “FALSE”. For FATLPRKKNPFEESSETWD, the motif_found entry under setting [1] is listed as “FALSE”. On to “FDIDMDAPETERAAVAIQSQFRKFQKKKAGSQS,DMDAPETERAAVAIQSQFRKFQKKKAGSQS---- [PCP4]”, for which the motif_found result (bait CALM1_EF-hand__P0DP23_2_149, library HD2, benchmarking set of validated motif instances, TRUE = motif instance recovered in the ProP-PD selection) was “FALSE”.

With FEAQWAALEGKATVEK, under setting [10], the motif_found result is reported as “TRUE”. The substance further showed a best_confidence under setting [14] of 3. The best_specificity under setting [15] is listed as 1.

Consider FEAQWAALENKSKQRT, for which the motif_found entry under setting [10] is recorded as “TRUE”. This substance gave a best_confidence under setting [14] of 3. In addition, under setting [15], the best_specificity was determined as 0.97. Take FFAQLQLDEETGEFLPIQPA: the motif_found result under setting [13] was “FALSE”. As for FGPPPQVPSRPNRAPPGVPS [DNM1], under “bait CRK_SH3_1_P46108_124_198, library HD2, benchmarking set of validated motif instances, TRUE = motif instance recovered in the ProP-PD selection”, the motif_found entry is reported as “FALSE”. Take FITGLTRTNPFSDRTAAPG: under setting [1], the motif_found result is reported as “FALSE”.

As to FLGNGNELEWEDDTPVATAKNMPG, the motif_found entry under setting [4] is “FALSE”. Consider “FLKLKNAATLIQRHWRGHNCRKNYGLMRLGF [MYO7A 771-787]”, for which the motif_found result (HD2 library, bait CALM1_EF-hand__P0DP23_2_149, benchmark motif instance, in_library_check FALSE, in_library_coverage 0) was “FALSE”.
